10 compounds from patent US6451789B1, “1-aza-2-alky-6-aryl-cycloalkanes” (Les Labortoires Servier, priority 1999, dated 2002) can be followed below.

Structures are written as SMILES.

Holding throughout (assay type): in vivo
The subject of test [1] is NMRI mouse. Briefly: Abdominal contractions induced by phenyl-p-benzoquinone (PBQ) in the NMRI mouse. To be noted: IP, PBQ at t=30 min, cramps counted t=35-45 min. How it is done:
Abdominal Contractions Induced by Phenyl-p-Benzoquinone (PBQ) in the NMRI Mouse
Intraperitoneal administration of an alcoholic solution of PBQ causes abdominal cramps in the mouse (SIEGNUND et al., Proc. Soc. Exp. Biol., 1957, 95, 729-731). The cramps are characterized by repeated contractions of the abdominal musculature, accompanied by extension of the hind limbs. Most analgesics antagonise these abdominal cramps (COLLIER et al., Brit. J. Pharmacol. Chem., 1968, 32, 295-310). At t=0 min., the animals are weight and the compound being studied is administered by the IP route. A group of contol animals is given the solvent used for the compound. At t=30 min., an alcoholic solution of PBQ (0.2%) is administered by the IP route in a volume of 0.25 ml/mouse. Immediately after administration of the PBQ, the animals are placed in cylinders of plexiglass (L=19.5 cm; I.D.=5 cm). From t=35 min. to t=45 min., the animals' reaction is observed and the experimenter notes the total number of abdominal cramps per animal. The Table hereinbelow gives the percentage inhibition of the number of abdominal cramps measured in the control animals, at the active dose of the compound studied.

The test system of test [2] is Wistar rat. The test can be described thus: Social recognition in the Wistar rat. Particulars: intraperitoneal route, dose 3 mg/kg, second encounter after 2 hours. An excerpt: Social Recognition in the Wistar Rat
Initially described in 1982 by THOR and HOLLOWAY, (J. Comp. Physiol., 1982, 96, 1000-1006), the social recognition test has subsequently been proposed by various authors (DANTZER et al., Psychopharmacology, 1987, 91, 363-368; PERIO et al., Psycho-pharmacology, 1989, 97, 262-268) for studying the mnemocognitive effects of new compounds. The test is based on the natural expression of the olfactory memory of the rat and its natural tendency to forget and allows evaluation of memorisation, by recognition of a young congeneric animal, by an adult rat. A young rat (21 days), taken at random, is placed for 5 minutes in the cage housing an adult rat. With the aid of a video device, the experimenter observes the social recognition behaviour of the adult rat and measures its overall duration. The young rat is then removed from the adult rat's cage and is placed in its own cage until the second introduction. The adult rat is given the compound under test by intraperitoneal route and, after 2 hours, is again brought into the presence (5 minutes) of the young rat. The social recognition behaviour is then observed again and its duration measured.
The Table hereinbelow gives the difference (T2—T1), expressed in seconds, between the “recognition” times of the 2 encounters.

The subject of test [3] is Wistar rat. The test can be described thus: Object recognition in the Wistar rat. Particulars: 30 minutes before each session, 24 hours between sessions. An excerpt: Object Recognition in the Wistar Rat
The object recognition test in the Wistar rat was initially developed by ENNACEUR and DELACOUR (Behav. Brain Res., 1988, 31, 47-59). The test is based on the spontaneous exploratory activity of the animal and has he characteristics of episodic memory in humans. This memory test is sensitive to ageing (SCALI et al., Eur. J. Pharmacol., 1997, 325, 173-180) and to cholinergic dysfunctions (BARTOLINI et al., Pharm. Biochem. Behav. 1996, 53(2), 277-283) and is based on the differences in the exploration of 2 objects of fairly similar shape—one familiar, the other new. Prior to the test, the animals are habituated to the environment (an enclosure without an object). In the course of a first session, the rats are placed (3 minutes) in the enclosure, in which there are 2 identical objects. The duration of exploration is measured for each object. In the course of the second session (3 minutes), 24 hours later, 1 of the 2 objects is replaced by a new object. The duration of exploration is measured for each object. The assessment criterion is the difference, Delta, expressed in seconds, between the exploration times for the new object and for the familiar object in the course of the second session.
The Table hereinbelow gives the difference, Delta, expressed in seconds, between the exploration times of the 2 objects.

Consider `CC1=CC(=O)CC(c2cccc(Cl)c2)N1` (racemic) [Example 1, (±)-2-(3-Chlorophenyl)-6-methyl-2,3-dihydro-4(1H)-pyridinone], for which the “Inhibition (%) of the number of abdominal cramps” value (“Inhibition (%)” below) in test [1] (dose 10 mg/kg) came to 51%. In addition, the “T2 − T1 (s), difference between the recognition times of the 2 encounters” value in test [2] was -36 s. In addition, the “Delta (s), difference between exploration times for new and familiar object” value worked out at 7.5 s in test [3] (dose 0.3 mg/kg, i.p.) and 9.95 s in test [3] (dose 0.3 mg/kg, p.o.).
For `CC1=CC(=O)CC(c2ccc(Cl)cc2)N1` (racemic) [Example 24, (±)-2-(4-Chlorophenyl)-6-methyl-2,3-dihydro-4(1H)-pyridinone], in test [2], the “T2 − T1 (s), difference between the recognition times of the 2 encounters” value is -32 s. Also, the “Delta (s), difference between exploration times for new and familiar object” value in test [3] (dose 3 mg/kg, i.p.) came to 7.55 s.
On to `CC1=CC(=O)CC(c2ccc(Cl)cc2)CN1` (racemic) [Example 25, (±)-6-(4-Chlorophenyl)-2-methyl-1,5,6,7-tetrahydro-4H-azepin-4-one], for which the “Inhibition (%)” value in test [1] (dose 20 mg/kg) worked out at 69%.
In the case of `CC1=CC(=O)CC(c2ccc(Cl)c(Cl)c2)N1` (racemic) [Example 26, (±)-2-(3,4-Dichlorophenyl)-6-methyl-2,3-dihydro-4(1H)-pyridinone], the “Inhibition (%)” value in test [1] (dose 10 mg/kg) is on record as 55%.
With `COc1cccc(C2CC(=O)C=C(C)N2)c1` (racemic) [Example 27, (±)-2-(3-Methoxyphenyl)-6-methyl-2,3-dihydro-4(1H)-pyridinone], the “Delta (s), difference between exploration times for new and familiar object” value in test [3] (dose 3 mg/kg, i.p.) is recorded as 6.68 s.
For `CC1=CC(=O)CC(c2ccsc2)N1` (racemic) [Example 30, (±)-6-Methyl-2-(3-thienyl)-2,3-dihydro-4(1H)-pyridinone], the “Inhibition (%)” value in test [1] (dose 20 mg/kg) is on record as 51%.
With `CC1=CC(=O)CC(c2cccnc2)N1` (racemic) [Example 36, (±)-6-Methyl-2-(3-pyridyl)-2,3-dihydro-4(1H)-pyridinone], the “T2 − T1 (s), difference between the recognition times of the 2 encounters” value in test [2] was -36 s.
Turning to `C[C@@H]1C[C@H](O)C[C@H](c2ccccc2)N1.Cl` (relative stereo) [Example 21, (2R*,4S*,6R*)-2-Phenyl-6-methyl-4-piperidinol hydrochloride], the “T2 − T1 (s), difference between the recognition times of the 2 encounters” value in test [2] is -33 s.
On to `C[C@@H]1C[C@H](O)C[C@H](c2ccccc2)N1.O=C(O)C(=O)O` (relative stereo) [Example 22, (2R*,4S*,6R*)-2-Phenyl-6-methyl-4-piperidinol oxalate], for which the “Delta (s), difference between exploration times for new and familiar object” value in test [3] (dose 0.3 mg/kg, i.p.) is listed as 9.98 s; in test [3] (dose 3 mg/kg, p.o.), 5.93 s.
Consider `CC1=CC(=O)C[C@@H](c2cccc(Cl)c2)N1` [Example 18, (2S)-2-(3-Chlorophenyl)-6-methyl-2,3-dihydro-4-(1H)-pyridinone], for which the “Delta (s), difference between exploration times for new and familiar object” value in test [3] (dose 1 mg/kg, p.o.) came out at 6.2 s.
